Laboratory results from patent US20240239781A1, “1H-PYRAZOLE DERIVATIVES AS SIGMA LIGANDS” (ACONDICIONAMIENTO TARRASENSE, priority 2021, published 2024).

Legend:
[1] = target: T1, human σ1 receptor (Homo sapiens, UniProt Q99720); test: Human σ1 receptor radioligand assay ([3H](+)-pentazocine, transfected HEK-293 membranes); details: class scale, read-out: Binding σ-1 Ki
T1 construct: expressed in transfected cells; host or cells: HEK-293
Outline: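 Compounds were tested at a single 1 or 10 μM concentration (% inhibition) or at five concentrations to give Ki. They competed with 5 nM [3H](+)-pentazocine for transfected HEK-293 membranes (7 μg) in 50 mM Tris-HCl pH 8 at 37° C for 120 minutes. Nonspecific binding was set with 10 μM haloperidol, and a filtration scintillation read-out was used.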

[2] = target: T2, human σ2/TMEM97 receptor (Homo sapiens, UniProt Q5BJF2); test: Binding assay to human σ2/TMEM97 receptor ([3H]-DTG, transfected HEK-293 membranes); details: class scale, read-out: Binding σ-2 Ki
T2 construct: expressed in transfected cells; host or cells: HEK-293
Outline: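 Competition against 10 nM [3H]-DTG (Tris-HCl 50 mM, pH 8.0, 25 °C, 120 min) using 15 μg transfected HEK-293 membrane protein, with 10 μM haloperidol defining NSB. Bound radioactivity counted after filtration; results as single-point % inhibition (1 or 10 μM) or five-point Ki.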

T1 sequence (Q99720 whole entry): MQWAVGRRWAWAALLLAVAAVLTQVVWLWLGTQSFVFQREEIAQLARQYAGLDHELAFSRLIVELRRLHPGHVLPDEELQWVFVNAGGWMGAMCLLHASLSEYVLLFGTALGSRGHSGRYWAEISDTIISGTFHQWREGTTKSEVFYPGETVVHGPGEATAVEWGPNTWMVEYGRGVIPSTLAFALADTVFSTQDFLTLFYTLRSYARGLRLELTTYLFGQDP
T2 sequence (Q5BJF2 whole entry): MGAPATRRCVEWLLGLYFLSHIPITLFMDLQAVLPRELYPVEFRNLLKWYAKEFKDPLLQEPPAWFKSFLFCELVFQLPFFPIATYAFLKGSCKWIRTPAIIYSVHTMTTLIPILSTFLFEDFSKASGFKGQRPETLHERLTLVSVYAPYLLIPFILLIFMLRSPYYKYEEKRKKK

SMILES	Ki [1]	Ki [2]
CCc1cc(-c2nn(C)c(Cl)c2C(=O)N2CCC3(CCN(CCC(C)(C)C)CC3)CC2)no1 [Example 97, (5-Chloro-3-(5-ethylisoxazol-3-yl)-1-methyl-1H-pyrazol-4-yl)(9-(3,3-dimethylbutyl)-3,9-diazaspiro[5.5]undecan-3-yl)methanone]	0.1 to 0.5 µM	< 0.1 µM
Cc1cc(-c2nn(C)c(Cl)c2CN2C[C@H](CNCCC(C)(C)C)[C@@H](C)C2)no1 [Example 78, N-(((3S,4R)-1-((5-Chloro-1-methyl-3-(5-methylisoxazol-3-yl)-1H-pyrazol-4-yl)methyl)-4-methylpyrrolidin-3-yl)methyl)-3,3-dimethylbutan-1-amine]	0.1 to 0.5 µM	< 0.1 µM
Cc1cc(-c2nn(C)c(Cl)c2CN2CCC(CNCc3ccccc3)CC2)no1 [Example 56, N-Benzyl-1-(1-((5-chloro-1-methyl-3-(5-methylisoxazol-3-yl)-1H-pyrazol-4-yl)methyl)piperidin-4-yl)methanamine]	0.1 to 0.5 µM	0.1 to 0.5 µM
Cc1cc(-c2nn(C)c(Cl)c2CN2CCCC(NCCC(C)(C)C)CC2)no1 (stereo not shown) [Example 23, 1-((5-Chloro-1-methyl-3-(5-methylisoxazol-3-yl)-1H-pyrazol-4-yl)methyl)-N-(3,3-dimethylbutyl)azepan-4-amine]	0.1 to 0.5 µM	< 0.1 µM
CCc1cc(-c2nn(C)c(Cl)c2CN2CCCCC(NCCC(C)C)C2)no1 (stereo not shown) [Example 21, 1-((5-Chloro-3-(5-ethylisoxazol-3-yl)-1-methyl-1H-pyrazol-4-yl)methyl)-N-isopentylazepan-3-amine]	0.5 to 1 µM	0.1 to 0.5 µM
Cc1cc(-c2nn(C)c(Cl)c2CN2CCCCC(N(C)CCN3CCCCC3)C2)no1 (stereo not shown) [Example 82, 1-((5-Chloro-1-methyl-3-(5-methylisoxazol-3-yl)-1H-pyrazol-4-yl)methyl)-N-methyl-N-(2-(piperidin-1-yl)ethyl)azepan-3-amine]	0.5 to 1 µM	0.1 to 0.5 µM
Cc1cc(-c2nn(C)c(Cl)c2CN2CCCCC(N(C)CC3CCOCC3)C2)no1 (stereo not shown) [Example 81, 1-((5-Chloro-1-methyl-3-(5-methylisoxazol-3-yl)-1H-pyrazol-4-yl)methyl)-N-methyl-N-((tetrahydro-2H-pyran-4-yl)methyl)azepan-3-amine]	0.1 to 0.5 µM	0.1 to 0.5 µM
Cn1nc(-c2cccnc2)c(CN2CCCCC(NCCC(C)(C)C)C2)c1Cl (stereo not shown) [Example 30, 1-((5-Chloro-1-methyl-3-(pyridin-3-yl)-1H-pyrazol-4-yl)methyl)-N-(3,3-dimethylbutyl)azepan-3-amine]	0.1 to 0.5 µM	> 1 µM
Cc1cc(-c2nn(C)c(Cl)c2CN2CCCCC(NCCN3CCCCC3)C2)no1 (stereo not shown) [Example 79, 1-((5-Chloro-1-methyl-3-(5-methylisoxazol-3-yl)-1H-pyrazol-4-yl)methyl)-N-(2-(piperidin-1-yl)ethyl)azepan-3-amine]	> 1 µM	0.1 to 0.5 µM
Cc1conc1-c1nn(C)c(Cl)c1C(=O)N1CCCC2(CCN(CCC(C)(C)C)CC2)C1 [Example 103, (5-Chloro-1-methyl-3-(4-methylisoxazol-3-yl)-1H-pyrazol-4-yl)(9-(3,3-dimethylbutyl)-2,9-diazaspiro[5.5]undecan-2-yl)methanone]	0.5 to 1 µM	< 0.1 µM
Cn1nc(-c2ccon2)c(CN2CCCCC(NCCC(C)(C)C)C2)c1Cl (stereo not shown) [Example 33, 1-((5-Chloro-3-(isoxazol-3-yl)-1-methyl-1H-pyrazol-4-yl)methyl)-N-(3,3-dimethylbutyl)azepan-3-amine]	0.1 to 0.5 µM	0.1 to 0.5 µM
Cc1cc(-c2nn(C)c(Cl)c2CN2CCC3(CCN(CCC(C)(C)C)C3)C2)no1 (stereo not shown) [Example 54, 3-(5-Chloro-4-((7-(3,3-dimethylbutyl)-2,7-diazaspiro[4.4]nonan-2-yl)methyl)-1-methyl-1H-pyrazol-3-yl)-5-methylisoxazole]	< 0.1 µM	< 0.1 µM
Cc1cc(-c2nn(C)c(Cl)c2CN2CCC(CNCc3ccccc3)C2)no1 (stereo not shown) [Example 44, N-Benzyl-1-(1-((5-chloro-1-methyl-3-(5-methylisoxazol-3-yl)-1H-pyrazol-4-yl)methyl)pyrrolidin-3-yl)methanamine]	0.5 to 1 µM	0.5 to 1 µM
Cc1cc(-c2nn(C)c(Cl)c2C(=O)N2CCC3(CCC(NCCC(C)C)CC3)CC2)no1 [Example 93, (5-Chloro-1-methyl-3-(5-methylisoxazol-3-yl)-1H-pyrazol-4-yl)(9-(isopentylamino)-3-azaspiro[5.5]undecan-3-yl)methanone]	> 1 µM	0.1 to 0.5 µM
COc1ccc(-c2nn(C)c(Cl)c2CN2CCCCC(NCCC(C)C)C2)nc1 (stereo not shown) [Example 36, 1-((5-Chloro-3-(5-methoxypyridin-2-yl)-1-methyl-1H-pyrazol-4-yl)methyl)-N-isopentylazepan-3-amine]	0.5 to 1 µM	> 1 µM

More lines, now with the values ahead:

Ki [1]	Ki [2]	SMILES
0.1 to 0.5 µM	< 0.1 µM	Cc1cc(-c2nn(C)c(Cl)c2CN2CC3(CCN(CCC(C)(C)C)CC3)CC2=O)no1 [Example 116, 2-((5-Chloro-1-methyl-3-(5-methylisoxazol-3-yl)-1H-pyrazol-4-yl)methyl)-8-(3,3-dimethylbutyl)-2,8-diazaspiro[4.5]decan-3-one]
< 0.1 µM	< 0.1 µM	CCn1nc(-c2cccc(C)n2)c(C(=O)NC2CCC3(CC2)CCN(CCC(C)(C)C)CC3)c1Cl [Example 151, 5-Chloro-N-(3-(3,3-dimethylbutyl)-3-azaspiro[5.5]undecan-9-yl)-1-ethyl-3-(6-methylpyridin-2-yl)-1H-pyrazole-4-carboxamide]
0.1 to 0.5 µM	< 0.1 µM	CCn1nc(-c2cc(C(C)C)on2)c(C(=O)N2CCCC3(CCN(CCC(C)(C)C)CC3)C2)c1Cl [Example 152, (5-Chloro-1-ethyl-3-(5-isopropylisoxazol-3-yl)-1H-pyrazol-4-yl)(9-(3,3-dimethylbutyl)-2,9-diazaspiro[5.5]undecan-2-yl)methanone]
> 1 µM	> 1 µM	Cc1cc(-c2nn(C)c(Cl)c2C(=O)N2CCCC(CN(C)CC(C)C)C2)no1 (stereo not shown) [Example 122, (5-Chloro-1-methyl-3-(5-methylisoxazol-3-yl)-1H-pyrazol-4-yl)(3-((isobutyl(methyl)amino)methyl)piperidin-1-yl)methanone]
< 0.1 µM	< 0.1 µM	CCc1cc(-c2nn(CC)c(Cl)c2C(=O)NC2CC3(CCN(CCC(C)(C)C)CC3)C2)no1 [Example 136, 5-Chloro-N-(7-(3,3-dimethylbutyl)-7-azaspiro[3.5]nonan-2-yl)-1-ethyl-3-(5-ethylisoxazol-3-yl)-1H-pyrazole-4-carboxamide]
0.5 to 1 µM	< 0.1 µM	Cc1cc(-c2nn(-c3ccccn3)c(Cl)c2C(=O)N2CCC3(CCN(CCC(C)(C)C)CC3)CC2)no1 [Example 172, (5-Chloro-3-(5-methylisoxazol-3-yl)-1-(pyridin-2-yl)-1H-pyrazol-4-yl)(9-(3,3-dimethylbutyl)-3,9-diazaspiro[5.5]undecan-3-yl)methanone]
0.1 to 0.5 µM	< 0.1 µM	Cc1cc(-c2nn(C)c(Cl)c2CC(=O)NC2CCC3(CC2)CCN(CCC(C)(C)C)CC3)no1 [Example 215, 2-(5-Chloro-1-methyl-3-(5-methylisoxazol-3-yl)-1H-pyrazol-4-yl)-N-(3-(3,3-dimethylbutyl)-3-azaspiro[5.5]undecan-9-yl)acetamide]
0.5 to 1 µM	< 0.1 µM	CCn1cc(-c2nn(C)c(Cl)c2C(=O)NC2CCC3(CC2)CCN(CCC(C)(C)C)CC3)cn1 [Example 146, 5-Chloro-N-(3-(3,3-dimethylbutyl)-3-azaspiro[5.5]undecan-9-yl)-1′-ethyl-1-methyl-1H,1′H-[3,4′-bipyrazole]-4-carboxamide]
0.1 to 0.5 µM	0.1 to 0.5 µM	Cc1cc(-c2nn(C)c(Cl)c2C(=O)N2CCCC(CN(C)CCC(C)(C)C)C2)no1 (stereo not shown) [Example 121, (5-Chloro-1-methyl-3-(5-methylisoxazol-3-yl)-1H-pyrazol-4-yl)(3-(((3,3-dimethylbutyl)(methyl)amino)methyl)piperidin-1-yl)methanone]
> 1 µM	0.1 to 0.5 µM	Cc1cc(-c2nn(C)c(Cl)c2C(=O)N2CCC3(CCN(CC(=O)N4CCC(F)(F)CC4)CC3)CC2)no1 [Example 113, 2-(9-(5-Chloro-1-methyl-3-(5-methylisoxazol-3-yl)-1H-pyrazole-4-carbonyl)-3,9-diazaspiro[5.5]undecan-3-yl)-1-(4,4-difluoropiperidin-1-yl)ethanone]
0.1 to 0.5 µM	< 0.1 µM	CCOc1cccc(-c2nn(C)c(Cl)c2C(=O)N2CCC3(CCN(CCC(C)(C)C)CC3)CC2)n1 [Example 186, (5-Chloro-3-(6-ethoxypyridin-2-yl)-1-methyl-1H-pyrazol-4-yl)(9-(3,3-dimethylbutyl)-3,9-diazaspiro[5.5]undecan-3-yl)methanone]
0.5 to 1 µM	< 0.1 µM	Cc1cc(-c2nn(C(C)C)c(Cl)c2C(=O)N2CC3(CCN(CCC(C)(C)C)CC3)C2)no1 [Example 188, (5-Chloro-1-isopropyl-3-(5-methylisoxazol-3-yl)-1H-pyrazol-4-yl)(7-(3,3-dimethylbutyl)-2,7-diazaspiro[3.5]nonan-2-yl)methanone]
< 0.1 µM	0.1 to 0.5 µM	CCn1nc(-c2ccon2)c(CC(=O)NCC2CCCN(CCC(C)(C)C)C2)c1Cl (stereo not shown) [Example 212, 2-(5-Chloro-1-ethyl-3-(isoxazol-3-yl)-1H-pyrazol-4-yl)-N-((1-(3,3-dimethylbutyl)piperidin-3-yl)methyl)acetamide]
0.1 to 0.5 µM	< 0.1 µM	CCn1nc(-c2ccon2)c(C(=O)N2CCC3(CCN(CCC(C)(C)C)CC3)CC2)c1Cl [Example 171, (5-Chloro-1-ethyl-3-(isoxazol-3-yl)-1H-pyrazol-4-yl)(9-(3,3-dimethylbutyl)-3,9-diazaspiro[5.5]undecan-3-yl)methanone]
